From paper PMC6930500, “Structure–Activity Relationships of 7-Substituted Dimethyltyrosine-Tetrahydroisoquinoline Opioid Peptidomimetics” (Molecules, 2019) come the findings set out here.

pEC50, pKi: −log10 of the molar value.

The target in assay [1] is T1, human KOR (Homo sapiens, UniProt P41145).
T1 construct: expressed in transfected cells; cell lines provided by Professor Lawrence Toll
Put plainly: [35S]-GTPγS binding stimulation, KOR. The assay is classed as biochemical. To be noted: mean (SEM); for pEC50: CHO-human KOR membranes, * n = 2, dns = does not stimulate, average maximal stimulation <10% at up to 10 µM; for Emax: versus 10 µM standard agonist U69,593, dns = average maximal stimulation <10% at up to 10 µM. As to the method:
(§1) Each novel compound was evaluated for binding to and stimulation of KOR, MOR, and DOR. Binding affinity (Ki) was determined by competitive displacement of [^3H]-diprenorphine, a non-selective opioid receptor antagonist with similar affinity for each of the three receptors. Potency (EC50) and efficacy, expressed as percent stimulation compared to a standard agonist at each receptor, were determined by a [^35S]-GTPγS binding assay.
(§2) Membranes prepared from transfected Chinese Hamster Ovary cells stably expressing human KOR, human MOR, or human DOR were used for all assays. Cells were grown to confluence at 37 °C in 5% CO2 in 1:1 DMEM:F12 media with 10% v/v fetal bovine serum and 5% v/v penicillin/streptomycin. Membranes were prepared by washing confluent cells three times with ice cold phosphate-buffered saline (0.9% NaCl, 0.61 mM Na2HPO4, 0.38 mM KH2PO4, pH 7.4). Cells were detached from the plates by incubation in warm harvesting buffer (20 mM HEPES, 150 mM NaCl, 0.68 mM EDTA, pH 7.4) and pelleted by centrifugation at 200× g for 3 min. The cell pellet was suspended in ice-cold 50 mM Tris-HCl buffer, pH 7.4 and homogenized with a Tissue Tearor (Biospec Products, Inc, distributed by Cole-Parmer, Vernon Hills, IL, USA) for 20 s at setting 4. The homogenate was centrifuged at 20,000× g for 20 min at 4 °C, and the pellet was rehomogenized in 50 mM Tris-HCl pH 7.4 with a Tissue Tearor for 10 s at setting 2, followed by recentrifugation. The final pellet was resuspended in 50 mM Tris-HCl pH 7.4 and frozen in aliquots at −80 °C. Protein concentration was determined via Pierce BCA protein assay kit using bovine serum albumin as the standard.
(§3) Agonist stimulation of KOR, MOR, and DOR by all test compounds was determined by [^35S]-guanosine 5′-O-[γ-thio]triphosphate ([^35S]-GTPγS) binding assays as previously reported. In a 96-well plate format, membranes from cells expressing opioid receptors as described above (10 µg of protein), [^35S]-GTPγS (0.1 nM), and guanosine diphosphate (30 µM) were incubated in GTPγS buffer (50 mM Tris-HCl, 100 mM NaCl, 5 mM MgCl2, 1 mM EDTA, pH 7.4) with various concentrations of test compound at 25 °C for 1 h. Basal stimulation was determined by incubation in the absence of any ligand. After incubation, membranes were filtered through Whatman GF/C 1.2 micron glass fiber filters and washed with GTPγS buffer with no EDTA. The radioactivity remaining on the filters was then quantified by liquid scintillation counting after saturation with EcoLume liquid scintillation cocktail in a Perkin-Elmer Microbeta 2450. Data are reported as percent stimulation compared to the effects of 10 µM standard agonists—U69,593 (KOR), DAMGO (MOR), or DPDPE (DOR). Percent stimulation and EC50 values were determined via nonlinear regression analysis using GraphPad Prism software from at least three separate assays performed in duplicate. Efficacy is expressed as percent stimulation relative to standard agonists.

For assay [2], the target named is T2, human DOR (Homo sapiens, UniProt P41143).
T2 construct: expressed in transfected cells; cell lines provided by Professor Lawrence Toll
Put plainly: [3H]-diprenorphine competitive displacement binding, DOR. To be noted: membranes from CHO cells expressing human DOR; mean (SEM), n>=3 in duplicate. The procedure: as §1, §2
(§4) Binding affinities for all test compounds at KOR, MOR, and DOR were determined by competitive displacement of [^3H]-diprenorphine as previously reported. In a 96-well plate format, cell membranes (5–10 µg of protein) and [^3H]-diprenorphine (0.2 nM) were incubated in Tris-HCl buffer (50 mM, pH 7.4) with various concentrations of test compound at 25 °C for 1 h, allowing the mixture to reach equilibrium. Nonspecific binding was determined using the opioid antagonist naloxone (10 µM), and total binding was determined using vehicle in the absence of competitive ligand. After incubation, membranes were filtered through Whatman GF/C 1.2 micron glass fiber filters and washed with 50 mM Tris-HCl buffer. The radioactivity remaining on the filters was then quantified by liquid scintillation counting after saturation with EcoLume liquid scintillation cocktail in a Microbeta 2450 (Perkin-Elmer, Waltham, MA, USA). Binding affinity (Ki) values were calculated using the Cheng–Prusoff equation via nonlinear regression analysis using GraphPad Prism software from at least three separate binding assays performed in duplicate.

For assay [3], the target named is T3, human MOR (Homo sapiens, UniProt P35372).
T3 construct: expressed in transfected cells; cell lines provided by Professor Lawrence Toll
Put plainly: [35S]-GTPγS binding stimulation, MOR. The assay is classed as biochemical. Conditions: mean (SEM), * n = 2; for pEC50: CHO-human MOR membranes, dns = does not stimulate, average maximal stimulation <10% at up to 10 µM; for Emax: versus 10 µM standard agonist DAMGO, dns = average maximal stimulation <10% at up to 10 µM. The procedure:
as §1, §2, §3

Assay [4] addresses T2, human DOR. Put plainly: [35S]-GTPγS binding stimulation, DOR. Format: biochemical. To be noted: mean (SEM), * n = 2; for % Stimulation DOR: versus 10 µM standard agonist DPDPE, dns = average maximal stimulation <10% at up to 10 µM. The procedure:
as §1, §2, §3

Assay [5] has as its target T3, human MOR. Put plainly: [3H]-diprenorphine competitive displacement binding, MOR. To be noted: for pKi: membranes from CHO cells expressing human MOR, mean (SEM), n>=3 in duplicate. As to the method: as §1, §2, §4
The target of assay [6] is T1, human KOR. The assay is described as follows: [3H]-diprenorphine competitive displacement binding, KOR. To be noted: for pKi: membranes from CHO cells expressing human KOR, mean (SEM), n>=3 in duplicate. The procedure:
as §1, §2, §4

Setting [7] is: CHO-human DOR membranes, dns = does not stimulate, average maximal stimulation <10% at up to 10 µM.

Turning to `COc1ccccc1Cc1ccc2c(c1)CN(C(=O)[C@@H](N)Cc1c(C)cc(O)cc1C)CC2` [Compound 8a, (S)-2-amino-3-(4-hydroxy-2,6-dimethylphenyl)-1-(7-(2-methoxybenzyl)-3,4-dihydroisoquinolin-2(1H)-yl)propan-1-one], the results for the pEC50 at human KOR [1] and at human MOR [3] were 6.89 and 7.04, respectively. Further, the Emax worked out at 72% at human KOR [1] and 37% on human MOR [3]. Besides, the pKi is 8.57 on human DOR [2], 8.43 on human MOR [5] and 8.51 at human KOR [6]. The “EC50 DOR” value on human DOR [4] (setting [7]) is “dns *”. Also, the “% Stimulation DOR” value on human DOR [4] is “dns *”.
Regarding `Cc1cc(O)cc(C)c1C[C@H](N)C(=O)N1CCc2ccc(Cc3ccccc3O)cc2C1` [Compound 8b, (S)-2-amino-3-(4-hydroxy-2,6-dimethylphenyl)-1-(7-(2-hydroxybenzyl)-3,4-dihydroisoquinolin-2(1H)-yl)propan-1-one], the pEC50 at human KOR [1] was 7.96; on human MOR [3], 7.37. Moreover, the values for the Emax on human KOR [1] and at human MOR [3] were 89% and 60%, respectively. For the same compound, the values for the pKi at human DOR [2], at human MOR [5] and at human KOR [6] were 8.60, 8.92 and 9.49, respectively. For the same compound, at human DOR [4] (setting [7]), the “EC50 DOR” value is listed as “dns *”. Further, the “% Stimulation DOR” value on human DOR [4] was “dns *”. The “higher affinity for MOR than for DOR” value on human MOR [5] (ratio of Ki values) is recorded as “two-fold”. In addition, on human KOR [6] (ratio of Ki values), the “higher affinity for KOR than for DOR” value is listed as “eight-fold”.
Take `Cc1cc(O)cc(C)c1C[C@H](N)C(=O)N1CCc2ccc(Cc3ccccc3C(F)(F)F)cc2C1` [Compound 8c, (S)-2-amino-3-(4-hydroxy-2,6-dimethylphenyl)-1-(7-(2-(trifluoromethyl)benzyl)-3,4-dihydroisoquinolin-2(1H)-yl)propan-1-one]: the results for the pEC50 at human KOR [1], at human MOR [3] and on human DOR [4] (setting [7]) were 6.76, 7.28 and 6.47, respectively. Moreover, the maximal response (Emax) at human KOR [1] was found to be 81%; at human MOR [3], 76%. Moreover, the values for the pKi on human DOR [2], on human MOR [5] and at human KOR [6] were 8.31, 8.37 and 8.59, respectively. For the same compound, the “% Stimulation DOR” value on human DOR [4] is listed as 24 (3) %.
As to `Cc1cc(O)cc(C)c1C[C@H](N)C(=O)N1CCc2ccc(Cc3ccccc3C#N)cc2C1` [Compound 8d, (S)-2-((2-(2-amino-3-(4-hydroxy-2,6-dimethylphenyl)propanoyl)-1,2,3,4-tetrahydroisoquinolin-7-yl)methyl)benzonitrile], the negative-log EC50 (pEC50) on human KOR [1] is 8.43; at human MOR [3] it was 6.18. Besides, the results for the Emax at human KOR [1] and on human MOR [3] were 80% and 31%, respectively. Further, the pKi at human DOR [2] is 8.44; on human MOR [5] it was 8.17; on human KOR [6] it was 9.30. Moreover, the “EC50 DOR” value on human DOR [4] (setting [7]) is listed as “dns”. The “% Stimulation DOR” value on human DOR [4] is “dns”.
Turning to `COc1cccc(Cc2ccc3c(c2)CN(C(=O)[C@@H](N)Cc2c(C)cc(O)cc2C)CC3)c1` [Compound 8e, (S)-2-amino-3-(4-hydroxy-2,6-dimethylphenyl)-1-(7-(3-methoxybenzyl)-3,4-dihydroisoquinolin-2(1H)-yl)propan-1-one], the pEC50 on human KOR [1] was 6.83; at human MOR [3], 7.62. The figures for the Emax at human KOR [1] and on human MOR [3] were 74% and 48%, respectively. In addition, the pKi on human DOR [2] was 8.77; at human MOR [5], 8.57; on human KOR [6] it was 8.52. At human DOR [4] (setting [7]), the “EC50 DOR” value was “dns”. Besides, at human DOR [4], the “% Stimulation DOR” value is “dns”.
As to `Cc1cc(O)cc(C)c1C[C@H](N)C(=O)N1CCc2ccc(Cc3cccc(O)c3)cc2C1` [Compound 8f, (S)-2-amino-3-(4-hydroxy-2,6-dimethylphenyl)-1-(7-(3-hydroxybenzyl)-3,4-dihydroisoquinolin-2(1H)-yl)propan-1-one], the figures for the pEC50 at human KOR [1] and on human MOR [3] were 6.83 and 7.74, respectively. Besides, the Emax at human KOR [1] was 83%; at human MOR [3] it was 81%. Also, the results for the pKi at human DOR [2], on human MOR [5] and at human KOR [6] were 8.85, 9.22 and 9.10, respectively. The “EC50 DOR” value at human DOR [4] (setting [7]) is reported as “dns *”. For the same compound, the “% Stimulation DOR” value on human DOR [4] is recorded as “dns *”.
Consider `Cc1cc(O)cc(C)c1C[C@H](N)C(=O)N1CCc2ccc(Cc3cccc(C(F)(F)F)c3)cc2C1` [Compound 8g, (S)-2-amino-3-(4-hydroxy-2,6-dimethylphenyl)-1-(7-(3-(trifluoromethyl)benzyl)-3,4-dihydroisoquinolin-2(1H)-yl)propan-1-one], for which the pEC50 at human KOR [1] was 6.50; on human MOR [3] it was 6.69. Besides, the Emax is 68% on human KOR [1] and 45% at human MOR [3]. Also, the pKi was 8.80 at human DOR [2], 8.39 at human MOR [5] and 8.27 on human KOR [6]. Moreover, the “EC50 DOR” value at human DOR [4] (setting [7]) is “dns”. Moreover, the “% Stimulation DOR” value on human DOR [4] is reported as “dns”.
In the case of `Cc1cccc(Cc2ccc3c(c2)CN(C(=O)[C@@H](N)Cc2c(C)cc(O)cc2C)CC3)c1C` [Compound 8i, (S)-2-amino-1-(7-(2,3-dimethylbenzyl)-3,4-dihydroisoquinolin-2(1H)-yl)-3-(4-hydroxy-2,6-dimethylphenyl)propan-1-one], the figures for the pEC50 at human KOR [1] and at human MOR [3] were 5.99 and 6.42, respectively. In addition, the Emax on human KOR [1] amounted to 54%; on human MOR [3] it was 34%. Further, the pKi on human DOR [2] was 8.44; at human MOR [5], 8.28; at human KOR [6], 8.24. The “EC50 DOR” value at human DOR [4] (setting [7]) is given as “dns *”. For the same compound, at human DOR [4], the “% Stimulation DOR” value is given as “dns *”.
In the case of `Cc1cc(O)cc(C)c1C[C@H](N)C(=O)N1CCc2ccc(Cc3cccnc3)cc2C1` [Compound 8j, (S)-2-amino-3-(4-hydroxy-2,6-dimethylphenyl)-1-(7-(pyridin-3-ylmethyl)-3,4-dihydroisoquinolin-2(1H)-yl)propan-1-one], the pEC50 at human KOR [1] is 6.01; on human MOR [3], 6.84. In addition, the values for the Emax on human KOR [1] and at human MOR [3] were 40% and 23%, respectively. The pKi on human DOR [2] was 8.82; at human MOR [5] it was 8.27; at human KOR [6], 7.25. The “EC50 DOR” value at human DOR [4] (setting [7]) was “dns”. Besides, at human DOR [4], the “% Stimulation DOR” value is listed as “dns”.
